Residues, ends and D or L forms follow the SMILES beside them. No end group written: not given here. *: point of attachment. FITC = O=C1OC2(c3ccc(O)cc3Oc3cc(O)ccc32)c2ccc(NC(=S)*)cc21
Key:
SKOV3 cells [1] = experiment: Flow cytometry of phage clone binding to SKOV3 cells; type: cell-based, human; settings: 4 °C 1 h, mouse anti-M13 and FITC goat anti-mouse antibody
Description: SKOV3 cells were collected and suspended in 2% FCS-PBS medium at 1 × 10^6 cells/mL. Purified phage clones were incubated individually with the cells at 4 °C for 1 h. The cells were washed twice with 2% FCS-PBS by 5 min centrifugation at 300 g. Mouse anti-M13 antibody was diluted with 2% FCS-PBS (1:400) and incubated with cells for 30 min at 4 °C. After washing, the cells were stained for 30 min at 4 °C with FITC conjugated goat anti-mouse antibody (Fcmacs, Inc., Nanjing). Cells were analyzed as described above.

SKOV3 cells [2] = experiment: Cell-based ELISA of phage clones on SKOV3 cells; set-up: species or system human; settings: FRα positive cells, fixed; 10^10 phages per well, 37 °C 2 h, HRP anti-M13
Description: (§1) Phage clones with high ELISA value were further tested by cell-based ELISA. SKOV3 (human epithelial ovarian cancer cell) is a FRα expressing cell line and was used to evaluate the binding of selected phage clones to natural FRα protein on cell surface. HEPG2 (Human Liver Carcinoma Cell) without FRα expressing was used as a negative control. Both cell lines were purchased from Shanghai Cell Biology Institutes (Academia Sinica, Shanghai, China) and maintained in RPMI 1640 Medium with 10% fetal bovine serum and antibiotics. The presence or absence of FRα expression of the two cell lines were confirmed by flow cytometry described in 2.4. The cells were cultured in 96-well plate to 80% confluence and fixed with 4% paraformaldehyde. After blocking with 3% BSA for 2 h, 10^10 individual phages were added to each well and incubated at 37 °C for 2 h. Then the plate was washed with PBST for three times and cell-bound phage was detected with HRP-conjugated anti-M13 IgG (1:10000) as described in phage ELISA.

HepG2 cells = experiment: Cell-based ELISA of phage clones on HepG2 cells; set-up: species or system human; settings: FRα negative cells, fixed; 10^10 phages per well, 37 °C 2 h, HRP anti-M13
Description: as §1

SKOV3 implanted tumor = experiment: In vivo homing of phage clones in SKOV3 xenografts; set-up: species or system Balb/c nude mice; settings: 2 × 10^11 phages i.v., circulated 15 min, phage titration per gram of tissue, n = 3
Description: Female Balb/c nude mice aged 6–8 weeks were purchased from the Yangzhou University Animal Center. All the animal studies were performed in compliance with the National Institutes of Health Guide for the Care and Use of Laboratory Animals and approved by IACUC (Institutional Animal Care and Use Committee of China Pharmaceutical University). The authors confirm that experiments involving laboratory animals adhered to the ethical standards of National Institutes of Health Guide and China Pharmaceutical University. The laboratory animals were used under the experimental animal production license 2121922. All animals were housed in a controlled environment (25 °C; 12 h light-dark cycle), with water and food provided freely. 2 × 10^6 SKOV3 cells were subcutaneously injected into the left flank of mice to generate epithelial ovarian cancer xenografts. 2 × 10^11 individual purified phage clones were injected intravenously and circulated for 15 min. After anesthetized with 10 mg/kg […] (5% w/v), the mice were perfused through the heart. Then, the tumor and main organs (liver, lung, kidney, heart and ovary) were harvested, weighed and homogenated. The homogenated tissues were washed, and lysed with 1% NP40. Bound phages were recovered by elution and titrated as described. The distribution of phages was calculated as phages per gram.

SKOV3 xenograft tumor = experiment: Tumor targeting of FITC conjugated synthetic peptide by fluorescence imaging; type: in vivo, nude mouse; settings: 200 μL of 10 mg/mL in PBS i.v., 2 h circulation, liver, lung, kidney, heart, ovary
Description: FITC conjugated peptide C7 was chemically synthesized by GL Biochem (Shanghai, China) and purified by high-performance liquid chromatography with more than 95% purity and confirmed by mass spectrometry. The FITC conjugated peptide was evaluated in tumor bearing mice for its tumor targeting capability. The peptide was dissolved in PBS at a concentration of 10 mg/mL and 200 μL was injected intravenously into a tumor bearing nude mouse. After 2 h circulation, tumor and other organ tissues (liver, lung, kidney, heart, and ovary) were harvested and analyzed using Carestream IS4000 fluorescence imaging system.

SKOV3 cells [3] = experiment: Cell internalization by confocal microscopy, SKOV3 cells; type: cell-based, human; settings: FITC conjugated peptide 200 μg/mL, 4 hours at 37 °C
Description: To visualize internalization of synthesized peptide C7 into cells, SKOV3 or HepG2 cells were seeded in 24 well plates (10^5 cells/well) containing coverslips and incubated for 24 hours in RPMI 1640 medium with 10% FBS. FITC conjugated peptide C7 or PB-TUP[24] (VHWDFRQWWQPS) (200 μg/mL) was incubated with the cells for 4 hours at 37 °C. After incubation, the cells were washed once with PBS and fixed in 4% paraformaldehyde for 10 min. Cells were then washed three times with PBS and stained with DAPI for 20 min at room temperature. Internalized fluorescent signals were imaged with a Zeiss LSM800 confocal microscope.

[4] = target: T1, Native human folate receptor alpha (FRα) on SKOV3 cells (human (endogenous in SKOV3), UniProt P15328 25-234); experiment: flow cytometry on cells; purified phage clones incubated with SKOV3 cells (1 × 10^6 cells/mL, 2% FCS-PBS) at 4 °C for 1 h; mouse anti-M13 antibody and FITC goat anti-mouse antibody; M13KE as negative control; settings: one partner purified
T1 construct: folate receptor alpha, endogenous on the surface of SKOV3 human epithelial ovarian cancer cells; also called natural FRα protein on cell surface; source: endogenous, on SKOV3 cells

[5] = target: T2, Recombinant human folate receptor alpha (FRα) (human, UniProt P15328 25-234); experiment: MST; serial dilutions of FITC conjugated C7 in PBS pH 7.4 mixed with purified FRα protein (1 μg/mL), 5 min at room temperature; Monolith NT.115, standard capillaries; KD from the Hill formula; settings: both partners purified
T2 construct: folate receptor alpha, human; also called recombinant folate receptor α; purified FRα protein; source: E. coli system, purified with a Ni-column
T2 sequence (P15328 25-234): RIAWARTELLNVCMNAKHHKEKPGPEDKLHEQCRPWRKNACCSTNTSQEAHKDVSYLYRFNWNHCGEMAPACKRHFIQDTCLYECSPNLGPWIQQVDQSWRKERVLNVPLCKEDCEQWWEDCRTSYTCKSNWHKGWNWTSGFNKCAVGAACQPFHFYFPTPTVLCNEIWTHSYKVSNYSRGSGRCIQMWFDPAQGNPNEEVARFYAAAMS

T1 sequence (P15328 25-234): as above

Molecule	specific binding to SKOV3 cells (FITC+ cells) (SKOV3 cells [1]) [%]	binding to SKOV3 cells in cell-based ELISA (SKOV3 cells [2])	binding to HepG2 cells in cell-based ELISA (HepG2 cells)	percent specific binding to SKOV3 cells [4] [%]	also measured
YTNPYYSSHTRN [phage clone G8, phage clone displaying Tyr-Thr-Asn-Pro-Tyr-Tyr-Ser-Ser-His-Thr-Arg-Asn]	36.0	highest binding	relatively low binding	–	–
MNPYPRTPWPHV [phage clone G12, phage clone displaying Met-Asn-Pro-Tyr-Pro-Arg-Thr-Pro-Trp-Pro-His-Val]	41.8	highest binding	relatively low binding	–	–
MHTAPGWGYRLS [phage clone C7, phage clone from Ph.D.-12 library displaying the C7 dodecapeptide]	51.2	highest binding	relatively low binding	–	phage enrichment in tumor tissue relative to M13KE phage in tumor (SKOV3 implanted tumor): 49 fold; phage titer in tumor relative to normal ovary (SKOV3 implanted tumor): 190 fold
CSCC[C@H](NC(=S)Nc1ccc2c(c1)C(=O)OC21c2ccc(O)cc2Oc2cc(O)ccc21)C(=O)N[C@@H](Cc1c[nH]cn1)C(=O)N[C@H](C(=O)N[C@@H](C)C(=O)N1CCC[C@H]1C(=O)NCC(=O)N[C@@H](Cc1c[nH]c2ccccc12)C(=O)NCC(=O)N[C@@H](Cc1ccc(O)cc1)C(=O)N[C@@H](CCCNC(=N)N)C(=O)N[C@@H](CC(C)C)C(=O)N[C@@H](CO)C(=O)O)[C@@H](C)O [C7, Met-His-Thr-Ala-Pro-Gly-Trp-Gly-Tyr-Arg-Leu-Ser] ({FITC}-MHTAPGWGYRLS-OH; N-terminus and C-terminus assumed)	–	–	–	–	fluorescence signal in the tumor compared with other organs (SKOV3 xenograft tumor): significantly stronger compared to that in other organs except liver and kidney; internalization into SKOV3 cells (SKOV3 cells [3]): can be internalized
GALLPSMNKGHW [phage clone B8, phage clone displaying Gly-Ala-Leu-Leu-Pro-Ser-Met-Asn-Lys-Gly-His-Trp]	–	highest binding	relatively low binding	–	–
MHTAPGWGYRLS (dodecapeptide selected by phage display; printed in three-letter code; the synthetic FITC peptide is m18; also called C7 phage clone; source: M13 phage clone from the Ph.D.-12 library, amplified in E. coli ER2738; purified phage for flow cytometry) [Phage clone C7]	–	–	–	51.2	–
GALLPSMNKGHW (dodecapeptide selected by phage display; printed in three-letter code; source: M13 phage clone from the Ph.D.-12 library, amplified in E. coli ER2738; purified phage for flow cytometry) [Phage clone B8/H1/G4]	–	–	–	31.8	–
{FITC}-MHTAPGWGYRLS (dodecapeptide of phage clone C7, chemically synthesized; printed in three-letter code; also called C7 peptide; synthesized peptide C7; source: synthetic peptide (GL Biochem, Shanghai; HPLC, more than 95% purity)) [FITC conjugated peptide C7]	–	–	–	–	Kd [5]: 300 nM
YTNPYYSSHTRN (dodecapeptide selected by phage display; printed in three-letter code; source: M13 phage clone from the Ph.D.-12 library, amplified in E. coli ER2738; purified phage for flow cytometry) [Phage clone G8]	–	–	–	36	–
MNPYPRTPWPHV (dodecapeptide selected by phage display; printed in three-letter code; source: M13 phage clone from the Ph.D.-12 library, amplified in E. coli ER2738; purified phage for flow cytometry) [Phage clone G12]	–	–	–	41.8	–
